Reference: PubChem BioAssay AID1963981 (Molecular Pharmacology Branch, DTP, NCI, 2024)

Test system: 354836-022-R-J1-PDC multicell spheroid viability
Experiment: Anticancer human tumor 354836-022-R-J1-PDC patient-derived head and neck squamous cell carcinoma cell line growth inhibition [PI3K]
Settings: for IC50: curve of first compound; for viability, T/C: stronger effect = lower value
Procedure, shortened: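 Multi-cell spheroids combine tumor cells with HUVEC and human MSCs, treated with targeted agents alone or with inavolisib, alpelisib, duvelisib or copanlisib. Concentrations fall in half-log steps from at or near clinical Cmax, or from 10 microM where Cmax is unknown; viability read-out.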
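Also: spheroids exposed to agents for seven days before the viability read.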

CC(C)NCC(C(=O)N1CCN(c2ncnc3c2C(C)CC3O)CC1)c1ccc(Cl)cc1 (configuration not stated) + CC(Nc1ncnc2nc[nH]c12)c1cc2cccc(Cl)c2c(=O)n1-c1ccccc1
IC50 (second compound 0.0316 µM): 317 nM | IC50 (second compound 0.1 µM): 490 nM | IC50 (second compound 0.316 µM): 340 nM | IC50 (second compound 1 µM): 491 nM | IC50 (second compound 3.16 µM): 383 nM | IC50 (second compound 10 µM): 454 nM | viability, T/C (second compound 0.0316 µM, first compound 0.0316 µM): 87.3% | viability, T/C (second compound 0.0316 µM, first compound 0.1 µM): 75.8% | viability, T/C (second compound 0.0316 µM, first compound 0.316 µM): 47.8% | viability, T/C (second compound 0.0316 µM, first compound 1 µM): 27.4% | viability, T/C (second compound 0.0316 µM, first compound 3.16 µM): 10.1% | viability, T/C (second compound 0.0316 µM, first compound 10 µM): 3.75% | viability, T/C (second compound 0.1 µM, first compound 0.0316 µM): 90.7% | viability, T/C (second compound 0.1 µM, first compound 0.1 µM): 79.7% | viability, T/C (second compound 0.1 µM, first compound 0.316 µM): 52.3% | viability, T/C (second compound 0.1 µM, first compound 1 µM): 43.7% | viability, T/C (second compound 0.1 µM, first compound 3.16 µM): 12.9% | viability, T/C (second compound 0.1 µM, first compound 10 µM): 3.85% | viability, T/C (second compound 0.316 µM, first compound 0.0316 µM): 100% | viability, T/C (second compound 0.316 µM, first compound 0.1 µM): 77.7% | viability, T/C (second compound 0.316 µM, first compound 0.316 µM): 50.1% | viability, T/C (second compound 0.316 µM, first compound 1 µM): 32.2% | viability, T/C (second compound 0.316 µM, first compound 3.16 µM): 7.64% | viability, T/C (second compound 0.316 µM, first compound 10 µM): 5.53% | viability, T/C (second compound 1 µM, first compound 0.0316 µM): 95.2% | viability, T/C (second compound 1 µM, first compound 0.1 µM): 84.8% | viability, T/C (second compound 1 µM, first compound 0.316 µM): 64.3% | viability, T/C (second compound 1 µM, first compound 1 µM): 27.3% | viability, T/C (second compound 1 µM, first compound 3.16 µM): 13.8% | viability, T/C (second compound 1 µM, first compound 10 µM): 3.16% | viability, T/C (second compound 3.16 µM, first compound 0.0316 µM): 102% | viability, T/C (second compound 3.16 µM, first compound 0.1 µM): 82.3% | viability, T/C (second compound 3.16 µM, first compound 0.316 µM): 52.5% | viability, T/C (second compound 3.16 µM, first compound 1 µM): 30.8% | viability, T/C (second compound 3.16 µM, first compound 3.16 µM): 12.4% | viability, T/C (second compound 3.16 µM, first compound 10 µM): 4.48% | viability, T/C (second compound 10 µM, first compound 0.0316 µM): 87.5% | viability, T/C (second compound 10 µM, first compound 0.1 µM): 76.7% | viability, T/C (second compound 10 µM, first compound 0.316 µM): 61.2% | viability, T/C (second compound 10 µM, first compound 1 µM): 28.4% | viability, T/C (second compound 10 µM, first compound 3.16 µM): 11% | viability, T/C (second compound 10 µM, first compound 10 µM): 3.05%
